According to patent US9840513B2 (AbbVie S.à.r.l., priority 2015, dated 2017):

Biological target: T1, F508delCFTR cell surface expression in CFBE41o-F508delCFTR-HRP cells (Homo sapiens, UniProt P13569, DEL508-508)
T1 construct: fused on or other part: Horseradish peroxidase (HRP) reporter inserted in the fourth exofacial (extracellular) loop of CFTR; expression is doxycycline-inducible
Assay: Cell Surface Expression-Horse Radish Peroxidase (CSE-HRP) Assay
Assay type: cell-based
Conditions: for EC50: CFBE41o-F508delCFTR-HRP cells, 18-24 hours at 33° C., 8-point curve, highest concentration 20 μM; for Maximum % activity (%): maximum at any tested concentration, normalized to on-plate positive control (3 μM)
In short: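 CFBE41o- cells with HRP-tagged F508delCFTR, expression induced by 0.5 μg/mL doxycycline for 72 h at 37 °C, then compound for 18-24 h at 33 °C (8-point, 3-fold, top 20 μM). Surface HRP measured by luminol luminescence; % activity normalised to 3 μM positive-control corrector; EC50 from variable-slope sigmoidal fit, three replicate plates.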

T1 sequence (P13569 with tags, fused parts or gaps DEL508-508 limits assumed): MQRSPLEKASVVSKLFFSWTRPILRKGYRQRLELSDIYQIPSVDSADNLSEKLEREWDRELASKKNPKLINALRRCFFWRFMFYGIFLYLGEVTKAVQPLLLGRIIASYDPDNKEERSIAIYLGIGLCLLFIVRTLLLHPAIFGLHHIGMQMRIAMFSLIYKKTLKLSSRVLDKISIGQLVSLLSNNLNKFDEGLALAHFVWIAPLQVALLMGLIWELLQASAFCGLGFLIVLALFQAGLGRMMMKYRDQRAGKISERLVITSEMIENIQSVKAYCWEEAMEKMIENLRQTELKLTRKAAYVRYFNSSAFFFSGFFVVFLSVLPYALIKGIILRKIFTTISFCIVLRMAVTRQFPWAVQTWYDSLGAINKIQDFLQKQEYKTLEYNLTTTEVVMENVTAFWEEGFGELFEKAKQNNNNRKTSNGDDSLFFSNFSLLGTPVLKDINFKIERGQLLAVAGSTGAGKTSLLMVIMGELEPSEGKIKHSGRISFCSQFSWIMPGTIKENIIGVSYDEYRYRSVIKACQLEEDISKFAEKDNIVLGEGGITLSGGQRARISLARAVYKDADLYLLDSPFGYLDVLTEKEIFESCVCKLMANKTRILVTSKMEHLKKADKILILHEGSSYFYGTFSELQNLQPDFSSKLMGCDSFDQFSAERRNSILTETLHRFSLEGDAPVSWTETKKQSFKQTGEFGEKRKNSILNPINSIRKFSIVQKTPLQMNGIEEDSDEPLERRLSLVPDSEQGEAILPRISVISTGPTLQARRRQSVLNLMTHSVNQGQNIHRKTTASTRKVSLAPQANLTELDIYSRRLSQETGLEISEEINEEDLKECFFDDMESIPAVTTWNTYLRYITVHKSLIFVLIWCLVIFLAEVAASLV
T1 sequence (P13569 919-1480 limits assumed, stated change not applied): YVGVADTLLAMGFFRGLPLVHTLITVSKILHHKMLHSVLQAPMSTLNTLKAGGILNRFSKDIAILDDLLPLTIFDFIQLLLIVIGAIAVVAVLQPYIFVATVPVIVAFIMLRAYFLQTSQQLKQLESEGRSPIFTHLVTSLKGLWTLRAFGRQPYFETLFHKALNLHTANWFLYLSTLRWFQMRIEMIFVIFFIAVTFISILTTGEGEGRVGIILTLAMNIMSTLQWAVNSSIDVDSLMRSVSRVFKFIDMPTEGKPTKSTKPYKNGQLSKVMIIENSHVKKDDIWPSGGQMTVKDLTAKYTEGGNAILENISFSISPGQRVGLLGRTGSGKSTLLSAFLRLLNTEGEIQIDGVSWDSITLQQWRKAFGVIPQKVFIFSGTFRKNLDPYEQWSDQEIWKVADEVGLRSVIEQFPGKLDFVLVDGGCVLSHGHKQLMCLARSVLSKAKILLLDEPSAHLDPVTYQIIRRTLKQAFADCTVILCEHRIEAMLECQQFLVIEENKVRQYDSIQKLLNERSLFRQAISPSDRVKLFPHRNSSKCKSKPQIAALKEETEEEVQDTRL

SMILES | EC50 | Maximum % activity (%)
COc1ccc2c(c1)O[C@@H](c1ccc(C(=O)O)cc1)C[C@H]2NC(=O)[C@@]1(C)CCc2cc3c(cc21)OC(F)(F)O3 (single isomer, unassigned) [Example 50] | 1670 nM | 75%
CC(C)(C)OC(=O)N[C@H]1CC[C@H]([C@@H]2C[C@H](NC(=O)[C@@]3(C)COc4cc5c(cc43)OC(F)(F)O5)c3ccc(OC(F)F)cc3O2)CC1 [Example 198, tert-butyl {trans-4-[(2S,4S)-7-(difluoromethoxy)-4-{[(7R)-2,2-difluoro-7-methyl-6,7-dihydro-2H-furo[2,3-f][1,3]benzodioxole-7-carbonyl]amino}-3,4-dihydro-2H-1-benzopyran-2-yl]cyclohexyl}carbamate] | 1070 nM | 106%
CC1(C)OC[C@@H](Cn2c3c(c4cc(NC(=O)[C@@]5(C)COc6cc7c(cc65)OC(F)(F)O7)c(F)cc42)C(C)(C)OCC3(C)C)O1 [Example 207, (7R)—N-(5-{[(4R)-2,2-dimethyl-1,3-dioxolan-4-yl]methyl}-7-fluoro-1,1,4,4-tetramethyl-1,3,4,5-tetrahydropyrano[4,3-b]indol-8-yl)-2,2-difluoro-7-methyl-6,7-dihydro-2H-furo[2,3-f][1,3]benzodioxole-7-carboxamide] | 350 nM | 69%
CC(C)(C)OC(=O)CN1CCC([C@@H]2C[C@H](NC(=O)[C@@]3(C)COc4cc5c(cc43)OC(F)(F)O5)c3ccc(OC(F)(F)F)cc3O2)CC1 [Example 183, tert-butyl {4-[(2S,4S)-4-{[(7R)-2,2-difluoro-7-methyl-6,7-dihydro-2H-furo[2,3-f][1,3]benzodioxole-7-carbonyl]amino}-7-(trifluoromethoxy)-3,4-dihydro-2H-1-benzopyran-2-yl]piperidin-1-yl}acetate] | 2220 nM | 60%
COC(=O)c1cccc([C@H]2C[C@@H](NC(=O)C3(C)COc4cc5c(cc43)OC(F)(F)O5)c3ccc(OC)cc3O2)c1 (stereo partly drawn) [Example 10, methyl 3-{(2R,4R)-4-[(2,2-difluoro-7-methyl-6,7-dihydro-2H-furo[2,3-f][1,3]benzodioxole-7-carbonyl)amino]-7-methoxy-3,4-dihydro-2H-1-benzopyran-2-yl}benzoate] | 410 nM | 121%
COc1ccc2c(c1)O[C@@H](c1ccc(C(=O)NCC(N)=O)cn1)C[C@H]2NC(=O)[C@@]1(C)COc2cc3c(cc21)OC(F)(F)O3 [Example 227, N-(2-amino-2-oxoethyl)-6-[(2R,4R)-4-{[(7R)-2,2-difluoro-7-methyl-6,7-dihydro-2H-furo[2,3-f][1,3]benzodioxole-7-carbonyl]amino}-7-methoxy-3,4-dihydro-2H-1-benzopyran-2-yl]pyridine-3-carboxamide] | 70 nM | 113%
CC(C)CN1CC2CN(c3cccc(NC(=O)C4(C)COc5cc6c(cc54)OC(F)(F)O6)n3)CC2C1 (stereo not drawn) [Example 108, 2,2-difluoro-7-methyl-N-{6-[5-(2-methylpropyl)hexahydropyrrolo[3,4-c]pyrrol-2(1H)-yl]pyridin-2-yl}-6,7-dihydro-2H-furo[2,3-f][1,3]benzodioxole-7-carboxamide] | 1990 nM | 89%
Cc1cc(C(=O)O)ccc1-c1cccc(NC(=O)[C@@]2(C)COc3cc4c(cc32)OC(F)(F)O4)n1 [Example 120, 4-(6-{[(7R)-2,2-difluoro-7-methyl-6,7-dihydro-2H-furo[2,3-f][1,3]benzodioxole-7-carbonyl]amino}pyridin-2-yl)-3-methylbenzoic acid] | 1440 nM | 253%
CC(C)(COCc1ccccc1)c1cc2cc(NC(=O)[C@]3(C)COc4cc5c(cc43)OC(F)(F)O5)c(F)cc2n1C[C@@H](O)COCc1ccccc1 [Example 205, (7S)—N-{1-[(2R)-3-(benzyloxy)-2-hydroxypropyl]-2-[1-(benzyloxy)-2-methylpropan-2-yl]-6-fluoro-1H-indol-5-yl}-2,2-difluoro-7-methyl-6,7-dihydro-2H-furo[2,3-f][1,3]benzodioxole-7-carboxamide] | > 20000 nM | 18%
CCOC(=O)[C@H]1CC[C@@H]([C@@H]2C[C@H](NC(=O)[C@@]3(C)COc4cc5c(cc43)OC(F)(F)O5)c3ccc(OC(F)(F)F)cc3O2)CC1 [Example 158, ethyl cis-4-[(2S,4S)-4-{[(7R)-2,2-difluoro-7-methyl-6,7-dihydro-2H-furo[2,3-f][1,3]benzodioxole-7-carbonyl]amino}-7-(trifluoromethoxy)-3,4-dihydro-2H-1-benzopyran-2-yl]cyclohexane-1-carboxylate] | 3670 nM | 111%
Cc1ccc(NC(=O)[C@@]2(C)COc3cc4c(cc32)OC(F)(F)O4)nc1-c1cccc(C(=O)OC(C)(C)C)c1 [Example 5, tert-butyl 3-(6-{[(7R)-2,2-difluoro-7-methyl-6,7-dihydro-2H-furo[2,3-f][1,3]benzodioxole-7-carbonyl]amino}-3-methylpyridin-2-yl)benzoate] | 3210 nM | 137%
COc1ccc2c(c1)O[C@@H](c1cccc(C(=O)O)c1)C[C@H]2NC(=O)[C@]1(C)CCc2cc3c(cc21)OC(F)(F)O3 (single isomer, unassigned) [Example 56] | 880 nM | 107%
CCOC(=O)[C@H]1CC[C@H]([C@H]2C[C@@H](NC(=O)[C@@]3(C)COc4cc5c(cc43)OC(F)(F)O5)c3ccc(OC(F)F)cc3O2)CC1 [Example 156, ethyl trans-4-[(2R,4R)-7-(difluoromethoxy)-4-{[(7R)-2,2-difluoro-7-methyl-6,7-dihydro-2H-furo[2,3-f][1,3]benzodioxole-7-carbonyl]amino}-3,4-dihydro-2H-1-benzopyran-2-yl]cyclohexane-1-carboxylate] | 90 nM | 142%
COc1ccc2c(c1)O[C@@H](c1ccc(C(=O)N(C)CCO)cn1)C[C@H]2NC(=O)[C@@]1(C)COc2cc3c(cc21)OC(F)(F)O3 [Example 234, 6-[(2R,4R)-4-{[(7R)-2,2-difluoro-7-methyl-6,7-dihydro-2H-furo[2,3-f][1,3]benzodioxole-7-carbonyl]amino}-7-methoxy-3,4-dihydro-2H-1-benzopyran-2-yl]-N-(2-hydroxyethyl)-N-methylpyridine-3-carboxamide] | 40 nM | 112%
C[C@]1(C(=O)Nc2cccc(N3CCCC3)n2)COc2cc3c(cc21)OC(F)(F)O3 [Example 118, (7R)-2,2-difluoro-7-methyl-N-[6-(pyrrolidin-1-yl)pyridin-2-yl]-6,7-dihydro-2H-furo[2,3-f][1,3]benzodioxole-7-carboxamide] | 1220 nM | 123%
C[C@]1(C(=O)N[C@H]2C[C@@H](C3CCN(C(=O)OCc4ccccc4)CC3)Oc3cc(OC(F)(F)F)ccc32)COc2cc3c(cc21)OC(F)(F)O3 [Example 225, benzyl 4-[(2S,4S)-4-{[(7R)-2,2-difluoro-7-methyl-6,7-dihydro-2H-furo[2,3-f][1,3]benzodioxole-7-carbonyl]amino}-7-(trifluoromethoxy)-3,4-dihydro-2H-1-benzopyran-2-yl]piperidine-1-carboxylate] | 4020 nM | 54%
COC(=O)[C@H]1CN(c2cccc(NC(=O)[C@@]3(C)COc4cc5c(cc43)OC(F)(F)O5)n2)C[C@@H]1c1ccccc1 [Example 112, methyl (3R,4S)-1-(6-{[(7R)-2,2-difluoro-7-methyl-6,7-dihydro-2H-furo[2,3-f][1,3]benzodioxole-7-carbonyl]amino}pyridin-2-yl)-4-phenylpyrrolidine-3-carboxylate] | 990 nM | 131%
C[C@]1(C(=O)Nc2cccc(-c3ccc(C(=O)O)cc3)n2)COc2cc3c(cc21)OC(F)(F)O3 [Example 81, 4-(6-{[(7R)-2,2-difluoro-7-methyl-6,7-dihydro-2H-furo[2,3-f][1,3]benzodioxole-7-carbonyl]amino}pyridin-2-yl)benzoic acid] | 1400 nM | 200%
C[C@]1(C(=O)Nc2cc(Br)cn(C[C@@H](O)CO)c2=O)COc2cc3c(cc21)OC(F)(F)O3 [Example 98, (7R)—N-{5-bromo-1-[(2R)-2,3-dihydroxypropyl]-2-oxo-1,2-dihydropyridin-3-yl}-2,2-difluoro-7-methyl-6,7-dihydro-2H-furo[2,3-f][1,3]benzodioxole-7-carboxamide] | 1140 nM | 143%
COc1ccc2c(c1)O[C@@H](c1ccc(C(=O)NCC3CNC(=O)C3)cn1)C[C@H]2NC(=O)[C@@]1(C)COc2cc3c(cc21)OC(F)(F)O3 (stereo partly drawn) [Example 231, 6-[(2R,4R)-4-{[(7R)-2,2-difluoro-7-methyl-6,7-dihydro-2H-furo[2,3-f][1,3]benzodioxole-7-carbonyl]amino}-7-methoxy-3,4-dihydro-2H-1-benzopyran-2-yl]-N-[(5-oxopyrrolidin-3-yl)methyl]pyridine-3-carboxamide] | 250 nM | 103%
CC1(C)OC[C@H](CN2CCC([C@H]3C[C@@H](NC(=O)[C@@]4(C)COc5cc6c(cc54)OC(F)(F)O6)c4ccc(OC(F)(F)F)cc4O3)CC2)O1 [Example 247, (7R)—N-[(2R,4R)-2-(1-{[(4S)-2,2-dimethyl-1,3-dioxolan-4-yl]methyl}piperidin-4-yl)-7-(trifluoromethoxy)-3,4-dihydro-2H-1-benzopyran-4-yl]-2,2-difluoro-7-methyl-6,7-dihydro-2H-furo[2,3-f][1,3]benzodioxole-7-carboxamide] | 1180 nM | 181%
